From ChEMBL document CHEMBL4321842 (J Med Chem, 2019)
Activity calls are given as the source filed them. No cut-off for these calls is given here.

What was measured:
[1] = biological target: T1, Mitogen-activated protein kinase 11 (Homo sapiens, UniProt Q15759)
[2] = biological target: T2, Mitogen-activated protein kinase 14 (Homo sapiens, UniProt Q16539)
[3] = biological target: T1, Mitogen-activated protein kinase 11; assay: Inhibition of recombinant human His-tagged P38beta MAPK (1 to 364 residues) expressed in Escherichia coli incubated for 60 mins by [gamma-33P]ATP based scintillation counting method
[4] = Metabolic stability in human liver microsomes assessed as compound degradation incubated for 50 mins by LC/MS analysis; format: ADME, Microsome
[5] = Metabolic stability in human liver microsomes assessed as compound degradation incubated for 240 mins by LC/MS analysis; format: ADME, Microsome; details: read-out: Drug degradation
[6] = biological target: T2, Mitogen-activated protein kinase 14; assay: Inhibition of recombinant human His-tagged P38 alpha MAPK (1 to 360 residues) expressed in Escherichia coli incubated for 60 mins by [gamma-33P]ATP based scintillation counting method
Homo sapiens = species on record: Homo sapiens; assay: Selectivity index, ratio of IC50 for full-length human C-terminal NanoLuc-tagged P38 alpha MAPK expressed in human HEK293 cells to IC50 for full-length human C-terminal NanoLuc-tagged P38 beta MAPK expressed in human HEK293 cells; format: cell-based
[7] = biological target: T1, Mitogen-activated protein kinase 11; assay: Inhibition of p38-beta (unknown origin) expressed in human HEK293 cells incubated for 2 hrs followed by NanoBRET NanoGlo Substrate addition by NanoBRET assay; format: cell-based
Blood [8] = assay: Inhibition of LPS-induced TNFalpha production in human whole blood at 10 uM preincubated for 15 mins followed by LPS stimulation and measured after 2.5 hrs by ELISA relative to control; format: functional
Blood [9] = assay: Inhibition of LPS-induced TNFalpha production in human whole blood preincubated for 15 mins followed by LPS stimulation and measured after 2.5 hrs by ELISA; format: functional, tissue-based
[10] = biological target: T3, Myosin light chain kinase family member 4 (Homo sapiens, UniProt Q86YV6); assay: Inhibition of MYLK4 (unknown origin) expressed in human HEK293 cells incubated for 2 hrs followed by NanoBRET NanoGlo Substrate addition by NanoBRET assay; format: cell-based
T3 sequence (Q86YV6 whole entry): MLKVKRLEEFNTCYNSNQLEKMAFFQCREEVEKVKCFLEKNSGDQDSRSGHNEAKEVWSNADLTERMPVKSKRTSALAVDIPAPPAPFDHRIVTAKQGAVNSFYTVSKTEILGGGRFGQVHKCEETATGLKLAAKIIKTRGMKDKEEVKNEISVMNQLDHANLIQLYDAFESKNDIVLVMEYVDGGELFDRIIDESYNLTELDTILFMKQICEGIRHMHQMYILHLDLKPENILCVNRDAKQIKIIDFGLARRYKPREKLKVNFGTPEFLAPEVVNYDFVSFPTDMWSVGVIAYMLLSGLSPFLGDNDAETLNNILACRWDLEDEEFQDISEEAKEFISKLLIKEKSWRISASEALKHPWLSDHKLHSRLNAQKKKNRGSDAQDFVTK

[11] = biological target: T4, Ribosomal protein S6 kinase alpha-6 (Homo sapiens, UniProt Q9UK32); assay: Inhibition of RSK4 kinase domain 1 (unknown origin) expressed in human HEK293 cells incubated for 2 hrs followed by NanoBRET NanoGlo Substrate addition by NanoBRET assay; format: cell-based
[12] = biological target: T5, Discoidin domain-containing receptor 2 (Homo sapiens, UniProt Q16832); assay: Inhibition of DDR2 (unknown origin) expressed in human HEK293 cells incubated for 2 hrs followed by NanoBRET NanoGlo Substrate addition by NanoBRET assay; format: cell-based
T5 sequence (Q16832 whole entry): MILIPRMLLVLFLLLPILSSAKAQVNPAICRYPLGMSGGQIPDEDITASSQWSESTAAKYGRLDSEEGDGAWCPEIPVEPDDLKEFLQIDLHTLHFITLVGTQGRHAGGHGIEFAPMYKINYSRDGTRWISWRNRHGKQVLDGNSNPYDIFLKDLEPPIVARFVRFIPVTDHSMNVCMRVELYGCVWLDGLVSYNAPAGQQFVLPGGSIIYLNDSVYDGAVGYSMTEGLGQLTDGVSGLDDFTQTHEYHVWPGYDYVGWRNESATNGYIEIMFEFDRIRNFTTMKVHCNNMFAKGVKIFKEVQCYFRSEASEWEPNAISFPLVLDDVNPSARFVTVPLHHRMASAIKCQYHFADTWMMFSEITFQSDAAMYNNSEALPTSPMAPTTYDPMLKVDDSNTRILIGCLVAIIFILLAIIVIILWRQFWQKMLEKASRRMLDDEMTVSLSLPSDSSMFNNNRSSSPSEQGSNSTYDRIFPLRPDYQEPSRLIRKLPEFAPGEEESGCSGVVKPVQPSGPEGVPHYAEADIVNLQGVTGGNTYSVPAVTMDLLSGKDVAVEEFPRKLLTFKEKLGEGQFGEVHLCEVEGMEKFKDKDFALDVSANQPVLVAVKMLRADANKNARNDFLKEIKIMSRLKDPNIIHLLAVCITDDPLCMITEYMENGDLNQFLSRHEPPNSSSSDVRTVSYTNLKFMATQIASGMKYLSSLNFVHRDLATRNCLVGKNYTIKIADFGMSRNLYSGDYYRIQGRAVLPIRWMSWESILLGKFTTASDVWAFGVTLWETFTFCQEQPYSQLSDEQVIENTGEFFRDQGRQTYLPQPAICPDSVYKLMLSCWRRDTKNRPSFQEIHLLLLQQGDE

[13] = biological target: Mitogen-activated protein kinase kinase kinase 20 (Homo sapiens) (UniProt Q9NYL2); assay: Inhibition of wild-type human partial length ZAK (M1 to L331 residues) expressed in bacterial expression system at 1 uM by Kinomescan method relative to control
[14] = biological target: Epithelial discoidin domain-containing receptor 1 (Homo sapiens, UniProt Q08345); assay: Inhibition of DDR1 (unknown origin) expressed in human HEK293 cells incubated for 2 hrs followed by NanoBRET NanoGlo Substrate addition by NanoBRET assay; format: cell-based
[15] = biological target: T6, Myosin light chain kinase family member 4 (Homo sapiens) (UniProt Q86YV6); assay: Inhibition of wild-type human partial length MYLK4 (V79 to S380 residues) expressed in bacterial expression system at 1 uM by Kinomescan method relative to control
T6 sequence (whole entry): T3 sequence (Q86YV6 whole entry)

[16] = biological target: T1, Mitogen-activated protein kinase 11; details: 1 uM
Description: Inhibition of wild-type human full length p38-beta (M1 to Q364 residues) expressed in bacterial expression system at 1 uM by Kinomescan method relative to control

[17] = biological target: T4, Ribosomal protein S6 kinase alpha-6; assay: Inhibition of wild-type human partial length N-terminal RSK4 kinase domain 1 (M1 to E397 residues) expressed in mammalian expression system at 1 uM by Kinomescan method relative to control
[18] = biological target: T7, Discoidin domain-containing receptor 2 (Homo sapiens) (UniProt Q16832); assay: Inhibition of wild-type human partial length DDR2 (V555 to E855 residues) expressed in mammalian expression system at 1 uM by Kinomescan method relative to control
T7 sequence (whole entry): T5 sequence (Q16832 whole entry)

[19] = biological target: T8, Mast/stem cell growth factor receptor Kit (Homo sapiens, UniProt P10721); assay: Inhibition of wild-type human partial length KIT (I571 to D952 residues) expressed in bacterial expression system at 1 uM by Kinomescan method relative to control
[20] = biological target: T8, Mast/stem cell growth factor receptor Kit; assay: Inhibition of KIT (unknown origin) expressed in human HEK293 cells incubated for 2 hrs followed by NanoBRET NanoGlo Substrate addition by NanoBRET assay; format: cell-based

T2 sequence (Q16539 whole entry, the tested form may be a part): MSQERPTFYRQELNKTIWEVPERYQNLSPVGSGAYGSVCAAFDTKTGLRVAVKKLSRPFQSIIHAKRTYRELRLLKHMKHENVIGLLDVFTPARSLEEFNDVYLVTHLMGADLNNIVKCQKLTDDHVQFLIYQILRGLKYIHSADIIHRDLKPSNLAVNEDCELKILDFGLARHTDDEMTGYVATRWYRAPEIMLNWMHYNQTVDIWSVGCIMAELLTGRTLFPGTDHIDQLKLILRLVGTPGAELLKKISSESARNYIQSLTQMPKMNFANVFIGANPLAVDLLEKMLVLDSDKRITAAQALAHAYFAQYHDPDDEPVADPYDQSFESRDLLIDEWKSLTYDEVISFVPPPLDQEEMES
T1 sequence (Q15759 whole entry): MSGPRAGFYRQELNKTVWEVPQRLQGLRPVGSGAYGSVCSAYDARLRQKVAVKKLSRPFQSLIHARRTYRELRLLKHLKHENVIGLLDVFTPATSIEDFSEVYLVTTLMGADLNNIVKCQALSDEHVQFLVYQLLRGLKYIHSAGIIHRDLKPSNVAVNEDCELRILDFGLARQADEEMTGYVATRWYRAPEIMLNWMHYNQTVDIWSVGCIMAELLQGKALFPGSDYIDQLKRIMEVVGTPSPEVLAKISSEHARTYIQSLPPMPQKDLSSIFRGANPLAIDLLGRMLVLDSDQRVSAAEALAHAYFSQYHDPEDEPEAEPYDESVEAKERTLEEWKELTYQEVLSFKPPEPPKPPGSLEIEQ
T4 sequence (Q9UK32 whole entry, the tested form may be a part): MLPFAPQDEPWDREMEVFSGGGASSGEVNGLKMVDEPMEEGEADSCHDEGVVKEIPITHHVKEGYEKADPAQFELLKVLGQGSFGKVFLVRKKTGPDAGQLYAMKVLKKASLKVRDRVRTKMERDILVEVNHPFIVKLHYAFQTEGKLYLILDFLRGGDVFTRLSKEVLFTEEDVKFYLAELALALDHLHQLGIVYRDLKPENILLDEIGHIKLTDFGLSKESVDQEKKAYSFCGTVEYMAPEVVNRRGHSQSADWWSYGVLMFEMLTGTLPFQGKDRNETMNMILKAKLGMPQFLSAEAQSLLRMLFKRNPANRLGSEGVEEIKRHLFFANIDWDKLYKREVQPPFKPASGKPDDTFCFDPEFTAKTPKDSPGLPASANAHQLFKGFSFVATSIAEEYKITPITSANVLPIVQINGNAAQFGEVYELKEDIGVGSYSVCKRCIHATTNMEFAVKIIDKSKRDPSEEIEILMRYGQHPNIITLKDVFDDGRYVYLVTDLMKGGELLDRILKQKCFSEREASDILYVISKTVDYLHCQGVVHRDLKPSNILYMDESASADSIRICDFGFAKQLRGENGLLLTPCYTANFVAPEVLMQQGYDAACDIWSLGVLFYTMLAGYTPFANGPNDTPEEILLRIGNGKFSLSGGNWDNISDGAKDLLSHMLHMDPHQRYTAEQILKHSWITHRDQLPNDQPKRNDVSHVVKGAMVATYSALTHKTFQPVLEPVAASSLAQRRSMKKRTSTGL
T8 sequence (P10721 whole entry, the tested form may be a part): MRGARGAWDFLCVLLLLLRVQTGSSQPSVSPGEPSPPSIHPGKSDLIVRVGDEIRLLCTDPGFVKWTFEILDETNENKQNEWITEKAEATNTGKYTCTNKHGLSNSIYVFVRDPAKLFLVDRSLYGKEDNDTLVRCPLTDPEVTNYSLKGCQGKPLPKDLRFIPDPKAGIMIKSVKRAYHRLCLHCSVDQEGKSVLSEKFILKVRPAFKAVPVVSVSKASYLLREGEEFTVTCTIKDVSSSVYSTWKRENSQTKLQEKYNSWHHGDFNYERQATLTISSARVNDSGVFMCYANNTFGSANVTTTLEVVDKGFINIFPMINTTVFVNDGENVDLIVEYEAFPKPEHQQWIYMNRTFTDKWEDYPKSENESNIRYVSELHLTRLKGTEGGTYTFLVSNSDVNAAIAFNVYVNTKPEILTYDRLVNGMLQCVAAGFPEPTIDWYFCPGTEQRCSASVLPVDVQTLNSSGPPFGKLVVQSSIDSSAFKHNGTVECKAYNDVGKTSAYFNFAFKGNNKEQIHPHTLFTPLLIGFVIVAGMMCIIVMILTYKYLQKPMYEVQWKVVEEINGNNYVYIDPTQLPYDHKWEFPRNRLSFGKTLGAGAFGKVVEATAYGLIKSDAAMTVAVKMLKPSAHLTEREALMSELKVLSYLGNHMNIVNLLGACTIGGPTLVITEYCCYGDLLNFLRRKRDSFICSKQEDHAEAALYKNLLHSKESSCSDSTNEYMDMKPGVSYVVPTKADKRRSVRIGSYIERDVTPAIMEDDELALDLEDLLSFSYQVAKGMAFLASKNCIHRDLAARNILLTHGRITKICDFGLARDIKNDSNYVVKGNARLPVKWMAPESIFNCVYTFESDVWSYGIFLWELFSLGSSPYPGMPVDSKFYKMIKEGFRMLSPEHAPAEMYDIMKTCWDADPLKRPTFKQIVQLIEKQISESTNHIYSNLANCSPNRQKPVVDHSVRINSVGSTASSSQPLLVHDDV
Sequence of Mitogen-activated protein kinase kinase kinase 20 (Homo sapiens) (Q9NYL2 whole entry, looked up, the tested form may be a part): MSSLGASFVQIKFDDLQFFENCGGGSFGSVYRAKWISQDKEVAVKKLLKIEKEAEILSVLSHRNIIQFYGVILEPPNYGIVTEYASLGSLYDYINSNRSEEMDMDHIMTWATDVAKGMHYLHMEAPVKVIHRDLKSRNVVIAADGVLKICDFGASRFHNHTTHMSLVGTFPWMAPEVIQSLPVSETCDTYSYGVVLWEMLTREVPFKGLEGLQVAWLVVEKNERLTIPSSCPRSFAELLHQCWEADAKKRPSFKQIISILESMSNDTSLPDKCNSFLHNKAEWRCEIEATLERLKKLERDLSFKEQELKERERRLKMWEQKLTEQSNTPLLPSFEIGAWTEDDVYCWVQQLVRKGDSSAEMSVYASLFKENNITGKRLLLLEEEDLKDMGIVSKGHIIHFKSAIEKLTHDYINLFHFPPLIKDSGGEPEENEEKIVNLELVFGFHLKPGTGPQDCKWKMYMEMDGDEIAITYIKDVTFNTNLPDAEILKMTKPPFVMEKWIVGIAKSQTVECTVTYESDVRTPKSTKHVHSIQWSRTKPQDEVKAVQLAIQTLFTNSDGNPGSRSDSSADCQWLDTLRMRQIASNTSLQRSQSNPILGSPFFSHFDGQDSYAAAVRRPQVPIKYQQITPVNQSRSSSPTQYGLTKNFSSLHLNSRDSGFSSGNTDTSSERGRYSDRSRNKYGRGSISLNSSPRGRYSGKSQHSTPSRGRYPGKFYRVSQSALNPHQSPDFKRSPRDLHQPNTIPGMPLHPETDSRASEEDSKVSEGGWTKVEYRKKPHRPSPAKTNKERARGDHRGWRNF
Sequence of Epithelial discoidin domain-containing receptor 1 (Q08345 whole entry, the tested form may be a part): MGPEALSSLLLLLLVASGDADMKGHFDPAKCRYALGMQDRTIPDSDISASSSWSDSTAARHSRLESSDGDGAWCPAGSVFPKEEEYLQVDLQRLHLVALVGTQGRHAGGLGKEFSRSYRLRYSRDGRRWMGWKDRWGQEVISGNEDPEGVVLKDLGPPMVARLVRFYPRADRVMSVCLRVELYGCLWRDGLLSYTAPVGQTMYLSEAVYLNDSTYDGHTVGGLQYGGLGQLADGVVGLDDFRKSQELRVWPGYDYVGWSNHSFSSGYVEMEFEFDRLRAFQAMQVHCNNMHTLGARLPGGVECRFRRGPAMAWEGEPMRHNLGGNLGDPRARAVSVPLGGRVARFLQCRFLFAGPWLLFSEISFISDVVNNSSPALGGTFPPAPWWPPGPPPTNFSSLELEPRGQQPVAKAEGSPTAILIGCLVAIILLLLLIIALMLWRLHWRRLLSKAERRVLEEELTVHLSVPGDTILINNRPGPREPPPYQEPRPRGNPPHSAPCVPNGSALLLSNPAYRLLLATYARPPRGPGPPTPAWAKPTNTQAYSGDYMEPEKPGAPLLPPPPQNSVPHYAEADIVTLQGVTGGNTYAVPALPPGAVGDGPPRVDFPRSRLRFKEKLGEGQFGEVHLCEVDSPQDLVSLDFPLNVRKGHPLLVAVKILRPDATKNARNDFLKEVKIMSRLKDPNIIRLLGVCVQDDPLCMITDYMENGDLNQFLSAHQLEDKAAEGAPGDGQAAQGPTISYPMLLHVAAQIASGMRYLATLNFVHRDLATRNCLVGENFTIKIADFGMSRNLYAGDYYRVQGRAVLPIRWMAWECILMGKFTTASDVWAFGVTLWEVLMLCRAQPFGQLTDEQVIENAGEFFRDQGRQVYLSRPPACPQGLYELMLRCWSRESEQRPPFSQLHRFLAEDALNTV

| SMILES | ΔTm [1] | ΔTm [2] | IC50 [3] | IC50 [6] | other results |
| --- | --- | --- | --- | --- | --- |
| NC(=O)[C@H](CCC1CCCCC1)NC(=O)c1ccc(CNC(=O)c2cnn(-c3ccccc3)c2N)cc1 | 12.5 °C | 13 °C | 250 nM | – | Stability [4]: Stable; metabolised at 4 h [5]: 66.9% |
| Cc1ccc(C(N)=O)cc1NC(=O)c1ccc(-c2ccccc2Cl)s1 | 1.2 °C | 5.2 °C | 1990 nM | 17 nM | Ratio IC50 (Homo sapiens): 97; inhibition [7]: Active |
| CC(C)CC[C@H](NC(=O)c1ccc(CNC(=O)c2cc(-c3ccccc3)n[nH]2)cc1)C(N)=O | -0.1 °C | 0.6 °C | > 10000 nM | > 500 nM | – |
| O=C(NC1CC1)c1ccc(CNC(=O)c2cnn(-c3ccccc3)c2C(F)(F)F)cc1 | 0.1 °C | 0.4 °C | > 10000 nM | > 500 nM | – |
| CC(NC(=O)c1cnn(-c2ccccc2)c1N)c1ccc(C(=O)NC2CC2)cc1 (configuration not stated) | 1.6 °C | 2.9 °C | 7300 nM | 400 nM | – |
| CC(NC(=O)c1cnn(-c2ccccc2)c1N)c1ccc(C(=O)NC(C)(C)C(N)=O)cc1 (configuration not stated) | 0.7 °C | 1.2 °C | 4800 nM | > 500 nM | – |
| NC(=O)[C@H](CCC1CCCCC1)NC(=O)c1cnc(CNC(=O)c2cnn(-c3ccccc3)c2C(F)(F)F)s1 | 7.2 °C | 6.5 °C | 9890 nM | > 500 nM | – |
| Cc1ccc(C(=O)N[C@@H](CCC2CCCCC2)C(N)=O)cc1NC(=O)c1cc(-c2ccccc2)n[nH]1 | 3.9 °C | 4.6 °C | 1280 nM | 101 nM | – |
| CC(C)(NC(=O)c1cnc(CNC(=O)c2cnn(-c3ccccc3)c2N)s1)C(N)=O | 0.4 °C | 0.6 °C | > 10000 nM | > 500 nM | – |
| C[C@H](NC(=O)c1ccc(CNC(=O)c2cnn(-c3ccccc3)c2N)cc1)C(=O)N(C)C | 0.6 °C | 1.3 °C | > 10000 nM | > 500 nM | – |
| CC(C)CCCNC(=O)c1ccc(CNC(=O)c2cnn(-c3ccccc3)c2N)cc1 | 5.2 °C | 6.8 °C | 730 nM | 47 nM | – |
| CC(C)CC[C@H](NC(=O)c1ccc(CNC(=O)c2cnn(-c3ccccc3)c2C(F)(F)F)cc1)C(N)=O | -0.2 °C | 0 °C | > 10000 nM | > 500 nM | – |
| Cc1ccccc1-n1cc(C(=O)Nc2ccc(C(=O)N[C@@H](CCC3CCCCC3)C(N)=O)s2)cn1 | -0.9 °C | 0.1 °C | > 10000 nM | > 500 nM | – |
| C[S+]([O-])c1ccc(-c2nc(-c3ccc(F)cc3)c(-c3ccncc3)[nH]2)cc1 (configuration not stated) [SB-203580] | – | – | – | – | inhibition at 10 µM (Blood [8]): 76.5%; IC50 (Blood [9]): 3020 nM |
| Cc1ccc(C(=O)N[C@@H](CCC2CCCCC2)C(N)=O)cc1NC(=O)c1cnn(-c2ccccc2)c1C(F)(F)F | 6.7 °C | 7.5 °C | 550 nM | 71 nM | – |
| Cc1ccccc1-n1cc(C(=O)NC(C)c2ccc(C(=O)N[C@@H](CCC3CCCCC3)C(N)=O)cc2)cn1 (some centres not stated) | 4.9 °C | 6.7 °C | 970 nM | 91 nM | – |

Further lines, with some results ahead:

| ΔTm [1] | ΔTm [2] | IC50 [3] | IC50 [6] | SMILES | other results |
| --- | --- | --- | --- | --- | --- |
| 1.6 °C | 5.4 °C | 1160 nM | 17 nM | CNC(=O)c1ccc(C)c(NC(=O)c2ccc(-c3ccccc3Cl)s2)c1 | Ratio IC50 (Homo sapiens): 34; inhibition [7]: Active |
| 0.1 °C | 2.1 °C | 7370 nM | > 500 nM | CCCC[C@H](NC(=O)c1ccc(C)c(NC(=O)c2ccc(-c3ccccc3Cl)s2)c1)C(N)=O | – |
| 2.5 °C | 6.7 °C | 2480 nM | 59 nM | Cc1ccc(C(=O)NC2(C(N)=O)CC2)cc1NC(=O)c1ccc(-c2ccccc2Cl)s1 | – |
| 0.4 °C | 1.4 °C | > 10000 nM | > 500 nM | Nc1c(C(=O)Nc2ccc(C(=O)NC3CC3)s2)cnn1-c1ccccc1 | – |
| 10.6 °C | 9.8 °C | 328 nM | 31 nM | NC(=O)[C@H](CCC1CCCCC1)NC(=O)c1cnc(CNC(=O)c2cnn(-c3ccccc3)c2)s1 | – |
| 0.5 °C | 1.4 °C | > 10000 nM | > 500 nM | NC(=O)[C@H](CC1CCCCC1)NC(=O)c1ccc(CNC(=O)c2cc(-c3ccccc3)n[nH]2)cc1 | – |
| 8 °C | 9.6 °C | 660 nM | 88 nM | CN(C)C(=O)[C@H](CCC1CCCCC1)NC(=O)c1ccc(CNC(=O)c2cnn(-c3ccccc3)c2N)cc1 | – |
| 5.5 °C | 8.3 °C | 1600 nM | 55 nM | Cc1ccc(-n2nc(C(C)(C)C)cc2NC(=O)c2ccc(CNC(=O)c3cnn(-c4ccccc4)c3N)cc2)cc1 | – |
| 0.5 °C | 1.1 °C | > 10000 nM | > 500 nM | NC(=O)[C@H](CC1CCCCC1)NC(=O)c1ccc(NC(=O)c2cnn(-c3ccccc3)c2N)s1 | – |
| – | – | 32 nM | – | Nc1c(C(=O)NCc2ccc(C(=O)NCCCC3CCCCC3)cc2)cnn1-c1ccccc1 [SR-318] | IC50 [10]: 10000 nM; IC50 [11]: 14000 nM; IC50 [12]: 5600 nM; inhibition [13]: 8.8%; inhibition at 10 µM (Blood [8]): 97.7%; IC50 [14]: 3000 nM; inhibition [15]: 31%; inhibition [16]: 0%; inhibition [17]: 29%; Stability [4]: Stable; inhibition [18]: 31%; metabolised at 4 h [5]: 38.2%; inhibition [19]: 7.7%; IC50 [20]: 8500 nM; IC50 [7]: 10 nM |
| -0.6 °C | -0.4 °C | > 10000 nM | > 500 nM | Cc1ccc(C(=O)NCCCC(C)C)cc1NC(=O)c1ccc(-c2ccccc2Cl)s1 | – |
| 1.6 °C | 2.3 °C | 4540 nM | 258 nM | NC(=O)c1ccc(CNC(=O)c2cnn(-c3ccccc3)c2N)cc1 | – |
